From patent US20200108032A1, “USE OF ISOFERULIC ACID, ISOFERULIC ACID-CONTAINING TRADITIONAL CHINESE MEDICINE EXTRACT AND CIMICIFUGAE RHIZOMA” (BEIJING DITAN HOSPITAL, CAPITAL MEDICAL UNIVERSITY, priority 2017, published 2020) come the findings set out here.

Common to all, as to type: in vivo, C57BL/6 mice
In series [1] the test system is mouse model of ConA hepatitis. Kind of series: Survival rate of hepatitis mouse model of ConA. Particulars: ConA 25 mg/kg i.v.; drug by gavage (compatibility 7 g/kg, Cimicifugae rhizoma 2 g/kg, total phenolic acid 300 mg/kg crude drug, isoferulic acid 5 mg/kg); observed at 96 h; model group 20%. An excerpt:
Test materials: ConA was purchased from Sigma; isoferulic acid was purchased from Tianjin Fangfang Technology Co., Ltd.
Animals: C57BL/6 mice, purchased from Beijing Huafukang Biotechnology Co., Ltd.
Grouping: 50 C57BL/6 mice, male, 18-20 g, after 1 day of adaptive breeding, the mice were randomly divided into 5 groups of 10 in each group: ConA model group, Cimicifugae rhizoma compatibility group, Cimicifugae rhizoma group, Cimicifugae rhizoma total phenolic acid group and isoferulic acid group.
Model preparation and drug administration: 150 mg of ConA powder were weighed and dissolved in 40 mL of sterile PBS and left at room temperature for 1 to 2 hours; the solution was intermittently shaken gently to mix well. Low temperature ultrasound promoted dissolution (no more than 5 min each time) and avoided excessive foaming. After the solution was fully dissolved, the volume was adjusted to 50 mL, prepared to a concentration of 3 mg/mL, and filtered under pressure with a 0.45 μm filter. Mice were given a single intravenous injection at 25 mg/kg, with 100 μL per mouse. […]

A further series is described as follows: Body weight of CIA mice. Particulars: day 21 of the second immunization; MEAN ± SEM. An excerpt:
The test materials and animals were the same as those in Experimental Example 3.
Model preparation and administration: same as in Experimental Example 3. On day 21 of the second immunization, the mice were weighed.

The subject of series [2] is CD48-CD11b+ positive granulocytes. Kind of series: Proportion of granulocytes in CIA arthritis mice (flow cytometry). Particulars: CD48-CD11b+ granulocytes to white blood cells; 21 days after second immunization; MEAN ± SEM. The text has this: Test materials and animals: CD48 PE and CD11b FITC antibodies were purchased from BD Pharmingen; RBC Lysis Buffer was purchased from Biolegend of the United States; other required reagents were the same as in Experimental Example 3.
Model preparation and drug administration: the administration dose of each treatment group was the same as that of Experimental Example 3. 21 days after the second immunization, the mice were anesthetized.
Animal: C57BL/6 mouse, purchased from Beijing Huafukang Biotechnology Co., Ltd.
Preparation of bone marrow single cell suspension: After anesthesia of C57BL/6 mice, the two pairs of femur and tibia of the mouse were separated, PBS was pipetted with a 2 mL syringe to flush the bone marrow cells into a flow tube, and pipetted repeatedly to obtain the bone marrow single cell suspension. The bone marrow was filtered into a flow tube with a 400-mesh strainer, discarded the supernatant after centrifugation, added 2 mL of RBC Lysis Buffer and lysed at room temperature for 15 min. Discarded the supernatant by centrifugation, harvested the bone marrow cells, resuspended by adding 1 mL of PBS, and repeatedly mixing by pipetting 100 μL into the flow tube for surface staining. […]

Series [3] concerns joint tissue cytokines IL-9, IL-18 and MIP-2. Kind of series: Joint tissue cytokines in CIA arthritis mice (multi-factor detection). Particulars: MEAN ± SEM. An excerpt: Test materials and animals: Consistent with Experimental Example 3. Anti-type II collagen antibody ELISA kit was purchased from Chondrex, Cytokine & Chemokine 36-Plex Mouse ProcartaPlex™ Panel 1A cytokine and chemokine detection kit was purchased from ThermoFisher.
Model preparation and drug administration: the drug dosage of each treatment group was the same as that of Experimental Example 3. After 21 days of the second immunization, the mice were anesthetized.
(3) The effects of each drug group on cytokine secretion in serum and joint tissues of CIA mice were measured. Seven mice from each group were examined; peripheral blood was collected and separated from serum. Cytokines in serum were detected by multiple factors: IFN-γ, IL-6, IL-9, IL-12, IL-17A, IP-10, MCP-1, MCP-3. MIP-1α, MIP-1β, Eotaxin, and G-CSF; the right hind limb knees, joints and claws were taken and stored in liquid nitrogen for quick freezing, then homogenized and extracted protein. Multi-factor detection of cytokines in tissues: IL-9, IL-18 and MIP-2 secretion.

Series [4] concerns serum cytokines TNF-α, IL-12, IL-6, MCP-1, IFN-γ. Kind of series: Serum cytokine secretion in mouse model of ConA hepatitis. Particulars: MEAN ± SEM. As for the experimental part:
The test materials and animals were the same as those in Experimental Example 1.
Grouping: C57BL/6 mice, male, 18-20 g, after 1 day of adaptive breeding, the mice were randomly divided into 6 groups: normal control group; ConA model group, Cimicifugae rhizoma compatibility group, Cimicifugae rhizoma group, Cimicifugae rhizoma total phenolic acid group and isoferulic acid group.
Model preparation and drug administration: except the normal control group, mice were injected intravenously once at a dose of ConA 15 mg/kg. The dosages of each drug group were the same as those of Experimental Example 1.
(3) The effects of drugs in each treatment group on serum cytokine secretion in ConA mice were examined. Six mice from each group. Peripheral blood was collected 3 hours after ConA injection and serum was separated to detect the secretion of cytokines TNF-α, IL-12, IL-6 and MCP-1. Serum was separated 10 hours after ConA injection to detect cells factor IFN-γ secretion.

The mark [5] stands for this setting: serum 3 hours after ConA injection.

`COc1ccc(C=CC(=O)O)cc1O` [isoferulic acid, 3-hydroxy-4-methoxycinnamic acid]: the “survival rate of mice” value in series [1] amounted to 60%. The molecule further registered a Body weight in “Body weight of CIA mice” of 21.6 ± 0.4 g. In series [2], the “proportion of granulocytes, Bone marrow” value turned out to be 44.6 ± 5.1 % and the “proportion of granulocytes, spleen” value was 9 ± 4.4 %. Further, in series [3], the “Joint tissue IL-9” value was found to be 3.2 ± 1.5 pg/mg, the “Joint tissue IL-18” value was 111.1 ± 125 pg/mg and the “Joint tissue MIP-2” value turned out to be 61.2 ± 45.8 pg/mg. In series [4] (setting [5]), this molecule showed an IL-6 of 1422 ± 214.2 pg/mL, an IL-12 of 183.7 ± 33.4 pg/mL, an MCP-1 of 5708 ± 145.5 pg/mL and a TNF-α of 260.4 ± 119.5 pg/mL. Besides, in series [4] (serum 10 hours after ConA injection), the IFN-γ turned out to be 574 ± 70.4 pg/mL.
